This test has as its system L1210 leukemia ip in BDF1 mice, survival T/C. The experiment in a line: NCI In Vivo Anticancer Drug Screen. Data for tumor model L1210 Leukemia (intraperitoneal) in B6D2F1 (BDF1) mice. The note with it: endpoint: mean survival time, higher = longer survival. The method, boiled down: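 Mice bearing the transplanted tumor received compound or vehicle. Survival of the treated group was divided by that of the vehicle-treated control group to give the ratio.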

[1] abbreviates: dose: 100.0 mg/kg/injection, schedule: Q04DX003 (ip), vehicle: Klucel (hydroxypropylcellulose) (HPC).
Setting [2] is: dose: 200.0 mg/kg/injection, schedule: Q04DX003 (ip), vehicle: Klucel (hydroxypropylcellulose) (HPC).
Setting [3] is: dose: 400.0 mg/kg/injection, schedule: Q04DX003 (ip), vehicle: Klucel (hydroxypropylcellulose) (HPC).
Setting [4] is: dose: 100.0 mg/kg/injection, schedule: Q01DX001 (ip), vehicle: saline.
Where [5] appears, read: dose: 200.0 mg/kg/injection, schedule: Q01DX001 (ip), vehicle: saline.
[6] abbreviates: dose: 400.0 mg/kg/injection, schedule: Q01DX001 (ip), vehicle: saline.

Experimental findings from PubChem BioAssay AID248 (DTP/NCI, 2004) are described below.

Several values for one entry are separate records, joined by “and”; a condition that tells them apart may be missing. Equal entries are not always repeated. Toxic doses and inconclusive results are not listed.

For `Fc1ccccc1N=C=S`, the T/C is 104 % of control (dose: 75.0 mg/kg/injection, schedule: Q01DX001 (ip), vehicle: other) and 93 % of control (dose: 150.0 mg/kg/injection, schedule: Q01DX001 (ip), vehicle: other).
Turning to `O=C(Nc1ccc(Br)cc1)c1nc(Br)[nH]c1Br`, the T/C by setting is: (dose: 6.25 mg/kg/injection, schedule: Q01DX009 (ip), vehicle: saline with Tween-80) 94 % of control; (dose: 12.5 mg/kg/injection, schedule: Q01DX009 (ip), vehicle: saline with Tween-80) 89 % of control; (dose: 25.0 mg/kg/injection, schedule: Q01DX009 (ip), vehicle: saline with Tween-80) 89 % of control.
As to `CC(=O)c1cc(N)ccc1SC#N`, the T/C runs as follows: (dose: 5.0 mg/kg/injection, schedule: Q01DX009 (ip), vehicle: saline with Tween-80) 102 % of control; (dose: 5.0 mg/kg/injection, schedule: Q04DX003 (ip), vehicle: saline with Tween-80) 101 % of control; (dose: 10.0 mg/kg/injection, schedule: Q01DX009 (ip), vehicle: saline with Tween-80) 96 % of control; (dose: 10.0 mg/kg/injection, schedule: Q04DX003 (ip), vehicle: saline with Tween-80) 101 % of control; (dose: 20.0 mg/kg/injection, schedule: Q01DX009 (ip), vehicle: saline with Tween-80) 100 % of control; (dose: 20.0 mg/kg/injection, schedule: Q04DX003 (ip), vehicle: saline with Tween-80) 103 % of control.
Turning to `CC1(C)N=C(N)N=C(N)N1c1cc(Cl)cc(CCCCc2ccc(S(=O)(=O)F)cc2)c1`, the T/C runs as follows: (dose: 25.0 mg/kg/injection, schedule: Q04DX003 (ip), vehicle: Klucel (hydroxypropylcellulose) (HPC)) 109 % of control; (dose: 50.0 mg/kg/injection, schedule: Q04DX003 (ip), vehicle: Klucel (hydroxypropylcellulose) (HPC)) 112 % of control; under setting [1], 107 % of control and 118 % of control.
For `OCCCNc1nc2cc(Br)ccc2c2ccc(Br)cc12`, the T/C is, setting by setting: under setting [1], 90 % of control; under setting [2], 105 % of control; under setting [3], 97 % of control.
With `Cc1cc(NC(=O)Nc2cccc(C3=NCCN3)c2)ccc1NC(=O)Nc1cccc(C2=NCCN2)c1`, the T/C was 93 % of control (dose: 15.0 mg/kg/injection, schedule: Q01DX Z (ip), vehicle: saline); 103 % of control (dose: 30.0 mg/kg/injection, schedule: Q01DX Z (ip), vehicle: saline); 109 % of control (dose: 60.0 mg/kg/injection, schedule: Q01DX Z (ip), vehicle: saline); 171 % of control (dose: 240.0 mg/kg/injection, schedule: Q01DX Z (ip), vehicle: saline); 192 % of control (dose: 480.0 mg/kg/injection, schedule: Q01DX Z (ip), vehicle: saline).
For `OC(c1nc2ccc(Cl)cc2[nH]1)C(O)C(O)C(O)c1nc2ccc(Cl)cc2[nH]1` (centres undefined), the T/C (dose: 100.0 mg/kg/injection, schedule: Q01DX001 (ip), vehicle: carboxymethylcellulose (CMC)) was 90 % of control; the T/C (dose: 200.0 mg/kg/injection, schedule: Q01DX001 (ip), vehicle: carboxymethylcellulose (CMC)) was 101 % of control; the T/C (dose: 400.0 mg/kg/injection, schedule: Q01DX001 (ip), vehicle: carboxymethylcellulose (CMC)) is 103 % of control.
As for `O=C(Nc1ccc(Cl)c(Cl)c1)c1ccc(Cl)cc1`, the T/C is, setting by setting: (dose: 100.0 mg/kg/injection, schedule: Q04DX002 (ip), vehicle: saline with Tween-80) 103 % of control; (dose: 200.0 mg/kg/injection, schedule: Q04DX002 (ip), vehicle: saline with Tween-80) 95 % of control; (dose: 400.0 mg/kg/injection, schedule: Q04DX002 (ip), vehicle: saline with Tween-80) 95 % of control.
With `C(=NC(c1ccccc1)(c1ccccc1)c1ccccc1)=NC(c1ccccc1)(c1ccccc1)c1ccccc1`, the T/C reads like this: (dose: 25.0 mg/kg/injection, schedule: Q01DX009 (ip), vehicle: gum acacia) 88 % of control; (dose: 50.0 mg/kg/injection, schedule: Q01DX009 (ip), vehicle: gum acacia) 90 % of control; (dose: 100.0 mg/kg/injection, schedule: Q04DX003 (ip), vehicle: gum acacia) 93 % of control; (dose: 200.0 mg/kg/injection, schedule: Q01DX009 (ip), vehicle: gum acacia) 88 % of control; (dose: 200.0 mg/kg/injection, schedule: Q04DX003 (ip), vehicle: gum acacia) 91 % of control; (dose: 400.0 mg/kg/injection, schedule: Q01DX009 (ip), vehicle: gum acacia) 88 % of control. Besides, the T/C (dose: 400.0 mg/kg/injection, schedule: Q04DX003 (ip), vehicle: gum acacia) is 86 % of control.
In the case of `CN=C(N)c1ccc(N=C(N)c2ccc(-c3ccc(C(N)=Nc4ccc(C(N)=NC)cc4)cc3)cc2)cc1`, the T/C (dose: 2.25 mg/kg/injection, schedule: Q01DX Z (ip), vehicle: carboxymethylcellulose (CMC)) is 109 % of control; the T/C (dose: 4.5 mg/kg/injection, schedule: Q01DX Z (ip), vehicle: carboxymethylcellulose (CMC)) is 115 % of control; the T/C (dose: 18.0 mg/kg/injection, schedule: Q01DX Z (ip), vehicle: carboxymethylcellulose (CMC)) was 184 % of control; the T/C (dose: 50.0 mg/kg/injection, schedule: Q01DX Z (oral), vehicle: water) is 101 % of control; the T/C (dose: 100.0 mg/kg/injection, schedule: Q01DX Z (oral), vehicle: water) was 112 % of control; the T/C (dose: 200.0 mg/kg/injection, schedule: Q01DX Z (oral), vehicle: water) was 107 % of control.
With `O=C(CCl)NCc1ccc(Cl)c(C(=O)O)c1`, the T/C runs as follows: under setting [4], 103 % of control; (dose: 100.0 mg/kg/injection, schedule: Q04DX003 (ip), vehicle: saline) 98 % of control; under setting [5], 99 % of control; (dose: 200.0 mg/kg/injection, schedule: Q04DX003 (ip), vehicle: saline) 88 % of control; under setting [6], 89 % of control; (dose: 400.0 mg/kg/injection, schedule: Q04DX003 (ip), vehicle: saline) 96 % of control.
As for `Cc1cc(OC(=O)c2ccc(N(C)C)cc2)ccc1[N+](=O)[O-]`, the T/C reads like this: (dose: 100.0 mg/kg/injection, schedule: Q01DX009 (ip), vehicle: Klucel (hydroxypropylcellulose) (HPC)) 95 % of control; under setting [1], 96 % of control; (dose: 200.0 mg/kg/injection, schedule: Q01DX009 (ip), vehicle: Klucel (hydroxypropylcellulose) (HPC)) 94 % of control; under setting [2], 91 % of control; (dose: 400.0 mg/kg/injection, schedule: Q01DX009 (ip), vehicle: Klucel (hydroxypropylcellulose) (HPC)) 97 % of control; under setting [3], 95 % of control.
`NC(=S)c1[nH]cnc1N`: the T/C is 95 % of control (dose: 27.0 mg/kg/injection, schedule: Q01DX015 (ip), vehicle: saline); 93 % of control (dose: 40.0 mg/kg/injection, schedule: Q01DX015 (ip), vehicle: saline); 101 % of control (dose: 60.0 mg/kg/injection, schedule: Q01DX015 (ip), vehicle: saline); 98 % of control (dose: 100.0 mg/kg/injection, schedule: Q01DX001 (ip), vehicle: other); 110 % of control under setting [4]; 95 % of control (dose: 200.0 mg/kg/injection, schedule: Q01DX001 (ip), vehicle: other). For the same compound, the T/C (dose: 400.0 mg/kg/injection, schedule: Q01DX001 (ip), vehicle: other) is 103 % of control.
On to `CCN(C(C)=O)c1ccc([N+](=O)[O-])cc1`, for which the T/C by setting is: under setting [4], 105 % of control; under setting [5], 96 % of control; under setting [6], 105 % of control.
Consider `Cc1ccc(C(=O)/C=C/c2ccco2)c(C)c1`, for which the T/C by setting is: (dose: 100.0 mg/kg/injection, schedule: Q04DX002 (ip), vehicle: Klucel (hydroxypropylcellulose) (HPC)) 99 % of control; (dose: 200.0 mg/kg/injection, schedule: Q04DX002 (ip), vehicle: Klucel (hydroxypropylcellulose) (HPC)) 86 % of control; (dose: 400.0 mg/kg/injection, schedule: Q04DX002 (ip), vehicle: Klucel (hydroxypropylcellulose) (HPC)) 99 % of control.
Turning to `C#CC(C)OCC1CO1` (centres undefined), the T/C by setting is: (dose: 50.0 mg/kg/injection, schedule: Q01DX009 (ip), vehicle: saline) 86 % of control; (dose: 100.0 mg/kg/injection, schedule: Q01DX009 (ip), vehicle: saline) 86 % of control; (dose: 100.0 mg/kg/injection, schedule: Q04DX003 (ip), vehicle: saline sonified) 117 % of control; (dose: 200.0 mg/kg/injection, schedule: Q01DX009 (ip), vehicle: saline) 93 % of control; (dose: 200.0 mg/kg/injection, schedule: Q04DX003 (ip), vehicle: saline sonified) 93 % of control.
Consider `OC(COc1c(Cl)c(Cl)c(Cl)c(Cl)c1Cl)CN1CCN(c2ccccc2Cl)CC1` (centres undefined), for which the T/C was 95 % of control under setting [4], 92 % of control under setting [5] and 92 % of control under setting [6].
